Experimental data: paper PMC9315496, “A Comparison of the Photophysical, Electrochemical and Cytotoxic Properties of meso-(2-, 3- and 4-Pyridyl)-BODIPYs and Their Derivatives” (Sensors (Basel, Switzerland), 2022)
Like-named read-outs stand apart in the source and are kept apart here. Marks after values point to notes of the source that are not given here.

Assays:
[1] = UV-vis absorption and emission spectroscopy, relative fluorescence quantum yields; format: physicochemical; conditions: for λabs / λem: room temperature; for Φf (relative fluorescence quantum yield): standard Ru(bpy)Cl2.6H2O (Φf = 0.028) in H2O, λexc = 436 nm
Experimental: UV−vis absorption spectra were collected on a Varian Cary 50 Bio spectrophotometer. Emission spectra were obtained on a PerkinElmer LS55 spectrophotometer, at room temperature. Spectrophotometric grade solvents and quartz cuvettes (1 cm path length) were used. Relative fluorescence quantum yields (Φf) were calculated using rhodamine 6G (Φf = 0.86 in methanol) as reference for the neutral BODIPYs and Ru(bpy)Cl2.6H2O (Φf = 0.028 in water) as the standard for the cationic BODIPYs using the following equation: Φx = Φst × Gradx/Gradst × (ηx/ηst)^2, where the ΦX and ΦST are the quantum yields of the sample and standard, GradX and GradST are the gradients from the plot of integrated fluorescence intensity vs. absorbance, and η represents the refractive index of the solvent (x is for the sample and st for the standard).

Cyclic voltammetry = format: physicochemical
From the text: Cyclic voltammograms were collected on a Biologic SP-300 potentiostat using a three-electrode setup with a platinum working electrode (2 mm diameter, CH Instruments), platinum counter electrode (2 mm diameter, CH Instruments), and a silver wire pseudo reference-electrode stored in 0.25 M NBu4PF6 in anhydrous acetonitrile and separated from the electrochemical cell by a glass frit. The electrochemical cell was composed of a borosilicate glass scintillation vial with a custom-machined cap. Working electrodes were polished and then pre-treated by cycling between upper and lower boundaries of the electrochemical window for the experiment in a solution containing only the electrolyte. Measurements were taken in a solution of 0.25 M recrystallized NBu4PF6 in dried and degassed anhydrous acetonitrile. BODIPYs were added to 5 mL of electrolyte solution to give a concentration of 1 mM. Each solution also contained 1 mM ferrocene as an internal reference. Solutions were sparged with N2 before each measurement.

HEp2 cells [2] = assay: Dark cytotoxicity, Cell Titer Blue; format: cell-based; conditions: Homo sapiens, HEp-2, 24 h incubation, read-out: Dark Toxicity (IC50)
Experimental: (§1) Human carcinoma HEp2 cells were obtained from ATCC and maintained in a 75 cm^2 flask (Chemglass) with 1× MEM (Eagle’s minimal essential medium) containing 10% FBS (fetal bovine serum) and 1% antibiotic (penicillin–streptomycin) in a humidified, 5% CO2 incubator at 37 °C. Stock solutions with a concentration of 32 mM in DMSO were prepared for each BODIPY. The stock solution was diluted to the final working concentrations with culture medium. The HEp2 cells were plated at 7500–10,000 cells per well in a Costar 96-well plate and allowed to grow for 24 h. The BODIPY stock solution was diluted to a 200 μM working solution and two-fold serial dilutions were prepared with final concentrations of 200, 100, 50, 25, 12.5, 6.25, and 0 μM. Each BODIPY was incubated for 24 h at 37 °C under 5% CO2. For the dark cytotoxicity experiments, after incubation, excess BODIPY was removed by washing the cells three times with 1× PBS (phosphate-buffered saline) and replacing with media containing 20% Cell Titer Blue (Promega, Madison, WI, USA). The cells were then incubated for additional 24 h at 37 °C under 5% CO2 and the cell toxicity was determined by fluorescence intensity at ex 570/em 615 nm using a FluoStar Optima microplate reader (BMG Labtech, Cary, NC, USA).

HEp2 cells [3] = assay: Phototoxicity (1.5 J/cm^2), Cell Titer Blue; format: cell-based; conditions: Homo sapiens, HEp-2, light or radiation study, light dose 1.5 J/cm^2
Experimental: as §1
For the phototoxicity experiments, after incubation the cells were exposed to a light dose of ~1.5 J/cm^2 generated using a 600 W Quartz Tungsten Halogen lamp (Newport Corporation, Irvine, CA, USA). The cells were exposed for 20 min while the 96-well plate rested on an EchoTherm chilling plate (Torrey Pines Scientific, Carlsbad, CA, USA) set to 5 °C. Following light exposure, the loading media was removed and media containing 20% Cell Titer Blue was added. After incubation for 24 h at 37 °C under 5% CO2, the cell viability was determined as described above.

[4] = cited from earlier work
[5] = vs. Fc^+/Fc, 100 mV/s, acetonitrile, 0.25 M NBu4PF6

CC1=C(Cl)C(C)=[N+]2C1=C(c1ccc[n+](C)c1)c1c(C)c(Cl)c(C)n1[B-]2(F)F [3catPyCl2, 2,6-Dichlo-8-(N-methyl-3-pyridyl)-1,3,5,7-tetramethyl-BODIPY]
Stokes Shift ([1]; CH3CN): 20 nm
ε (molar extinction coefficient) ([1]; CH3CN): 43,160 M^−1 cm ^−1
λabs ([1]; CH3CN): 540 nm
λem ([1]; CH3CN): 560 nm
Φf (relative fluorescence quantum yield) ([1]; CH3CN): 0.23 ^b
Stokes Shift ([1]; H2O): 24 nm
ε (molar extinction coefficient) ([1]; H2O): 35,180 M^−1 cm ^−1
λabs ([1]; H2O): 540 nm
λem ([1]; H2O): 564 nm
Φf (relative fluorescence quantum yield) ([1]; H2O): 0.47
Φf (relative fluorescence quantum yield) ([1]; H2O, listed as 3catPyCl2 (I^−)): 0.47 ^b
fluorescence enhancement relative to the non-chlorinated pyridinium BODIPY ([1]; acetonitrile): 38 fold
fluorescence enhancement relative to the non-chlorinated pyridinium BODIPY ([1]; water): 100 fold
first reduction wave shift positive compared with the unchlorinated BODIPY (Cyclic voltammetry): 240 mV
second reduction wave shift positive compared with the unchlorinated BODIPY (Cyclic voltammetry): 120 mV
anodic peak shift positive compared with the corresponding unchlorinated BODIPY (Cyclic voltammetry; 100 mV/s): 160 mV
E1/2ox (oxidation peak potential only, irreversible wave) (Cyclic voltammetry; [5]): +1.10 ^c V
E1/2red, first one-electron reduction (Cyclic voltammetry; [5]): −1.02 V
E1/2red, second one-electron reduction (Cyclic voltammetry; [5]): −1.42 V
IC50 (HEp2 cells [2]): 120 µM
IC50 (HEp2 cells [3]): > 100 µM

CC1=CC(C)=[N+]2C1=C(c1cc[n+](C)cc1)c1c(C)cc(C)n1[B-]2(F)F [4catPy]
bathochromic shift of maximum absorption wavelength upon methylation ([1]; acetonitrile, experimental): 8 nm
Stokes Shift ([4]; CH3CN): 87 nm
Φf (fluorescence quantum yield) ([4]; CH3CN): 0.019
ε (molar extinction coefficient) ([4]; CH3CN): 26,000 M^−1 cm ^−1
λabs ([4]; CH3CN): 509 nm
λem ([4]; CH3CN): 596 nm
Stokes Shift ([4]; H2O): 91 nm
Φf (fluorescence quantum yield) ([4]; H2O): 0.004
ε (molar extinction coefficient) ([4]; H2O): 31,600 M^−1 cm ^−1
λabs ([4]; H2O): 509 nm
λem ([4]; H2O): 600 nm
E1/2red, two-electron reduction to doubly reduced state (Cyclic voltammetry; [5]): −1.06 ^e V
E1/2ox (Cyclic voltammetry; vs. Fc^+/Fc, 100 mV/s, acetonitrile, 0.25 M NBu4PF6, PF6^− counterion): +0.89 V
IC50 (HEp2 cells [2]): > 200 µM
IC50 (HEp2 cells [3]): > 100 µM
